System: Plasmodium berghei
Assay: Luciferase/luciferin-expressing antifolate-resistant parasites were used to infect a culture of HepG2 cells that were pre-incubated with compounds. Infected hepatocytes emit light due to the luciferase reaction. Assay results are presented as the percent inhibition of light emission compared to control. […]
Format: functional
Details: sporozoite; for IC50: read-out: LUCIFERASE INFECTION ASSAY - IC50; for IC90: read-out: LUCIFERASE INFECTION ASSAY - IC90

| Structure (SMILES) | IC50 | IC90 |
| --- | --- | --- |
| CCOc1ccc(S(=O)(=O)Nc2cccc(C(=O)N3CCN(c4ccccn4)CC3)c2)cc1 | > 10 µM | > 10 µM |
| CC(=O)NC(Cc1c[nH]c2ccccc12)C(=O)NNC(=O)c1ccccc1O (centres undefined) | > 10 µM | > 10 µM |
| CC(C)N(Cc1nc(=O)c2ccccc2[nH]1)C(=O)COc1ccccc1Cc1ccccc1 | > 10 µM | > 10 µM |
| O=C(CN1CCN(C(=O)C2COc3ccccc3O2)CC1)Nc1ccccc1-c1ccccc1 (centres undefined) | > 10 µM | > 10 µM |
| Fc1ccc(-c2csc3ncnc(Sc4nnc(NC5CC5)s4)c23)cc1 | > 10 µM | > 10 µM |
| O=C(c1ccc(S(=O)(=O)NCc2ccco2)cc1)N1CCc2sccc2C1c1cccs1 (centres undefined) | > 10 µM | > 10 µM |
| NS(=O)(=O)c1ccc(CCNC(=O)COC(=O)c2ccc3[nH]c4c(c3c2)CCCC4)cc1 | > 10 µM | > 10 µM |
| Cc1cc(/C=C2\SC(N3CCOCC3)=NC2=O)c(C)n1-c1cccc(C(F)(F)F)c1 | > 10 µM | > 10 µM |
| COc1cc2c(cc1OC)C(c1ccccc1)N(C(=O)/C=C/c1ccsc1)CC2 (centres undefined) | > 10 µM | > 10 µM |
| COCCN(Cc1nnc(-c2cccs2)o1)C(=O)c1cc(C2CC2)nc2c1cnn2C(C)C | > 10 µM | > 10 µM |
| CCOC(=O)c1c(CN2C(=O)NC3(CCCc4sccc43)C2=O)nc2ccccc2c1C (centres undefined) | > 10 µM | > 10 µM |
| COc1ccc(-c2nn(-c3ccccc3)cc2CN(Cc2ccccc2)C(=O)c2ccco2)cc1 | > 10 µM | > 10 µM |
| Cc1ccc(-n2c(SCC(=O)c3ccc4c(c3)OCO4)nnc2N2CCCC2)cc1 | > 10 µM | > 10 µM |
| O=C(c1nn(-c2ccccc2)c(=O)c2ccccc12)N1CCN(C2CCS(=O)(=O)C2)CC1 (centres undefined) | > 10 µM | > 10 µM |
| CC(C)(C)C(=O)/C=c1\[nH]c(=O)/c(=C\c2ccc(Oc3ccc(F)cc3)c([N+](=O)[O-])c2)s1 | > 10 µM | > 10 µM |
| Cc1cc(=O)c(C(=O)Nc2cc(C(F)(F)F)ccc2N2CCCCC2)nn1-c1ccccc1Cl | > 10 µM | > 10 µM |
| Cc1noc(C)c1COc1ccc(C(=O)NNc2c(Cl)cc(Cl)cc2Cl)cc1 | > 10 µM | > 10 µM |
| CCn1c(=S)[nH]c2cc(C(=O)N3CCN(C(c4ccc(F)cc4)c4ccc(F)cc4)CC3)ccc21 | > 10 µM | > 10 µM |
| c1ccc(-c2csc3ncnc(Sc4nnc(C5COc6ccccc6O5)n4-c4ccccc4)c23)cc1 (centres undefined) | > 10 µM | > 10 µM |
| Cc1nc(SCC(=O)N2c3ccccc3Sc3ccccc32)n(CC(C)C)c1C | > 10 µM | > 10 µM |
| CCN(CC)C(=O)COC(=O)c1ccc2c(c1)C(=O)N(CCC(C)C)C2=O | > 10 µM | > 10 µM |
| CC(=O)N1CCN(S(=O)(=O)c2cccc(C(=O)OCC(=O)c3ccc4c(c3)-c3ccccc3C4)c2)CC1 | > 10 µM | > 10 µM |
| COc1ccc(NS(=O)(=O)c2ccc3oc(SC(C)C(=O)N4CCNC4=O)nc3c2)cc1 (centres undefined) | > 10 µM | > 10 µM |
| O=C(Cn1ncc(Cl)c(Cl)c1=O)Nc1ccc(OCc2ccccc2)cc1 | > 10 µM | > 10 µM |
| CCOCCCn1c(SCC(=O)Nc2scc(C3CC3)c2C(=O)OCC)nnc1-c1ccc(Cl)cc1 | > 10 µM | > 10 µM |
| Cc1ccc(-c2nnc(SCC(=O)Nc3ccc(S(=O)(=O)N4CCCC4)cc3)[nH]2)cc1 | > 10 µM | > 10 µM |

| Structure (SMILES) | IC50 | IC90 |
| --- | --- | --- |
| O=C(OCC(=O)N1CCN(c2ccccc2)CC1)c1cccnc1Nc1cccc(C(F)(F)F)c1 | > 10 µM | > 10 µM |
| Cc1nc2ccccc2c(=O)n1-c1ccc(C(=O)NCCc2ccc3c(c2)OCCO3)cc1 | > 10 µM | > 10 µM |
| CN(C)c1ccc(S(=O)(=O)N2CCCCC2)cc1NC(=S)NCc1ccc2c(c1)OCO2 | > 10 µM | > 10 µM |
| Cc1ccc(N(Cc2ccccc2)C(=O)C2CCN(S(=O)(=O)c3c(Cl)cccc3Cl)CC2)cc1 | > 10 µM | > 10 µM |
| COCCn1c(SC(C)C(=O)c2ccc(Br)cc2)nnc1-c1cccc(C)c1 (centres undefined) | > 10 µM | > 10 µM |
| Cc1nn(Cc2ccccc2Cl)c(C)c1C(=O)OCC(=O)N1CCN(c2ccccc2)CC1 | > 10 µM | > 10 µM |
| O=C(N/N=C/c1sc(Nc2ccccc2)nc1Cl)c1cc(-c2ccncc2)nc2ccccc12 | > 10 µM | > 10 µM |
| Cc1cc(/C=C(\C#N)c2nc3ccccc3n2C)c(C)n1-c1ccc(Cl)c(C(F)(F)F)c1 | > 10 µM | > 10 µM |
| COc1ccc(Cc2nnc(SCC(=O)/C(C#N)=C(\C)N)n2-c2ccc(Oc3ccccc3)cc2)cc1OC | > 10 µM | > 10 µM |
| COc1cc(C(=O)Nc2ccc(-c3cn4ccsc4n3)cc2)ccc1OCC(=O)N1CCOCC1 | > 10 µM | > 10 µM |
| O=C(CN1CCN(Cc2nc3ccccc3s2)CC1)NN1C(=O)NC2(CCCCC2)C1=O | > 10 µM | > 10 µM |
| CCc1ccc(-c2csc(NC(=O)CCc3c(C)nc4nc(SC)nn4c3C)n2)cc1 | > 10 µM | > 10 µM |
| Cc1cc(C)c2c(N)c(C(=O)NNC(=O)COc3ccc4c5c(c(=O)oc4c3)CCC5)sc2n1 | > 10 µM | > 10 µM |
| CNc1snc(C)c1C(=O)OCc1ccc([N+](=O)[O-])cc1 | > 10 µM | > 10 µM |
| O=C(Cn1cnc2cc(N3CCOCC3)c([N+](=O)[O-])cc2c1=O)c1ccc(C2CCCCC2)cc1 | > 10 µM | > 10 µM |
| O=C(CSc1nnc(N2CCCC2)n1-c1ccccc1Cl)N1CCC(c2ccccc2)=N1 | > 10 µM | > 10 µM |
| O=S(=O)(NCCCCOc1ccc(Cl)cc1)c1ccc(S(=O)(=O)N2CCOCC2)cc1 | 9.97 µM | > 10 µM |
| CCn1c(C)nc2cc(C(=O)NNC(=O)/C=C/c3cccc(C(F)(F)F)c3)ccc21 | > 10 µM | > 10 µM |
| COc1cc(C(=O)NC(c2ccccc2)c2ccc(C)cc2)ccc1OCC(=O)N1CCOCC1 (centres undefined) | > 10 µM | > 10 µM |
| COc1cc(OC)c2c(-c3ccccc3)cc(SCC(=O)N(C)C3CCS(=O)(=O)C3)nc2c1 (centres undefined) | > 10 µM | > 10 µM |
| COc1cc(OC)c(N2CC(C(=O)NC(C)c3ccc(F)c(F)c3)CC2=O)cc1Cl (centres undefined) | > 10 µM | > 10 µM |
| COc1ccccc1-n1cnnc1SCC(=O)NC(C)c1ccc(CC(C)C)cc1 (centres undefined) | > 10 µM | > 10 µM |
| CC(C(=O)Nc1cccc(C#N)c1)N1CCN(c2ncccn2)CC1 (centres undefined) | > 10 µM | > 10 µM |
| Cc1csc2nc(COC(=O)c3ccc(-c4nc5ccccc5s4)o3)cc(=O)n12 | > 10 µM | > 10 µM |
| NC(=O)c1ccsc1NC(=O)COC(=O)c1ccc2c(c1Cl)C(=O)c1ccccc1C2=O | > 10 µM | > 10 µM |
| O=C(C1CN(C(=O)CCCc2c[nH]c3ccccc23)c2ccccc2O1)N1CCCCC1 (centres undefined) | > 10 µM | > 10 µM |

| Structure (SMILES) | IC50 | IC90 |
| --- | --- | --- |
| CSCCC(NCc1cc(C)n(-c2ccnn2C(C)C)c1C)c1nc2ccccc2[nH]1 (centres undefined) | > 10 µM | > 10 µM |
| Cn1nc(CC(=O)N2CC(C(=O)N3CCCCC3)Oc3ccccc32)c2ccccc2c1=O (centres undefined) | > 10 µM | > 10 µM |
| Cc1cc(C(C)(C)C)cc(C)c1COC(=O)/C(=C/c1ccccc1)n1nnnc1C | > 10 µM | > 10 µM |
| Cc1ccc(Cn2nc(C)c3cc(C(=O)N4CCN(c5ncccn5)CC4)sc32)cc1 | > 10 µM | > 10 µM |
| COCCCn1c(Sc2ncnc3sc4c(c23)CCC4)nc2sc3c(c2c1=O)CCC3 | > 10 µM | > 10 µM |
| CCOc1cc(C(=O)N(CC2CCCO2)C2CCS(=O)(=O)C2)cc(OCC)c1OCC (centres undefined) | > 10 µM | > 10 µM |
| CC(C)(C)c1ccc(NC(=O)CSc2ccc(S(=O)(=O)N3CCN(Cc4ccccc4)CC3)cn2)cc1 | 4.44 µM | 9.27 µM |
| O=C(COC(=O)c1cc(-c2ccc(OC(F)F)cc2)nc2ccccc12)Nc1nnc(-c2ccccc2)o1 | > 10 µM | > 10 µM |
| CCn1c(SCc2csc(N(C(C)=O)c3c(C)cc(C)cc3Cl)n2)nnc1C1CC1 | > 10 µM | > 10 µM |
| COc1ccc2cc(C(C)C(=O)N3CCN(S(=O)(=O)/C=C/c4ccccc4)CC3)ccc2c1 (centres undefined) | > 10 µM | > 10 µM |
| Cc1cc(C(=O)CSc2nnc3n2CCCCC3)c(C)n1Cc1ccc2c(c1)OCO2 | > 10 µM | > 10 µM |
| Cc1ccc2c(COC(=O)[C@@H]3CCCN3C(=O)c3cccs3)cc(=O)oc2c1 | > 10 µM | > 10 µM |
| CN(Cc1nc2ccccc2s1)C(=O)CSc1nnc(N2CCCCC2)n1-c1ccccc1 | > 10 µM | > 10 µM |
| CCN(CC)S(=O)(=O)c1ccc(C)c(NC(=O)CN(Cc2c(F)cccc2Cl)C2CC2)c1 | > 10 µM | > 10 µM |
| O=C(NC(c1ccc(F)cc1)c1cccs1)c1cc2ccccc2o1 (centres undefined) | > 10 µM | > 10 µM |
| CCOC(=O)/C=C1\SCC(=O)N1CCOC(=O)c1ccccc1 | > 10 µM | > 10 µM |
| CC(=O)N/C(=C\c1ccccc1)C(=O)OCc1ncc(-c2ccccc2)o1 | > 10 µM | > 10 µM |
| O=C(CN1CCN(C(=O)c2ccccc2COc2ccccc2)CC1)Nc1ccccc1Cl | > 10 µM | > 10 µM |
| COc1cc(/C=c2\s/c(=C(/C#N)C(=O)Nc3cccc(S(=O)(=O)N4CCCCC4)c3)n(CCc3ccccc3)c2=O)ccc1OC(F)F | > 10 µM | > 10 µM |
| CC1C(=O)Nc2ccc(-c3csc(-c4ccc(NC(=O)c5ccco5)cc4)n3)cc21 (centres undefined) | > 10 µM | > 10 µM |
| Cc1cc2oc(=O)cc(COC(=O)c3cccc(S(=O)(=O)N(Cc4ccccc4)c4cccc(C(F)(F)F)c4)c3)c2cc1C(C)C | > 10 µM | > 10 µM |
| CCCN(CC(=O)N1N=C(c2ccc(C)cc2)CC1c1ccco1)Cc1nnc(-c2ccco2)o1 (centres undefined) | > 10 µM | > 10 µM |
| Nc1c(C(=O)CN2CCN(C(c3ccc(F)cc3)c3ccc(F)cc3)CC2)c(=O)[nH]c(=O)n1Cc1ccccc1 | > 10 µM | > 10 µM |
| COc1ccc(-c2csc3ncnc(NC(C)c4ccc(Cl)cc4Cl)c23)cc1 (centres undefined) | > 10 µM | > 10 µM |
| Cc1c(/C=N/NC(=O)c2ccccc2)c(Cl)n(C)c(=O)c1C#N | > 10 µM | > 10 µM |

Source: ChEMBL document CHEMBL4483862, “Open-source discovery of chemical leads for next-generation chemoprotective antimalarials” (2018)
